Laboratory results: paper PMC4138991, “Building a Better Dynasore: The Dyngo Compounds Potently Inhibit Dynamin and Endocytosis” (Traffic (Copenhagen, Denmark), 2013)
Like-named read-outs stand apart in the source and are kept apart here.

Key:
[1] = target: T1, recombinant rat dynamin II (Rattus norvegicus, UniProt P39052); assay: Dynamin II GTPase assay (PS-stimulated); assay type: biochemical
T1 sequence (P39052 1-870): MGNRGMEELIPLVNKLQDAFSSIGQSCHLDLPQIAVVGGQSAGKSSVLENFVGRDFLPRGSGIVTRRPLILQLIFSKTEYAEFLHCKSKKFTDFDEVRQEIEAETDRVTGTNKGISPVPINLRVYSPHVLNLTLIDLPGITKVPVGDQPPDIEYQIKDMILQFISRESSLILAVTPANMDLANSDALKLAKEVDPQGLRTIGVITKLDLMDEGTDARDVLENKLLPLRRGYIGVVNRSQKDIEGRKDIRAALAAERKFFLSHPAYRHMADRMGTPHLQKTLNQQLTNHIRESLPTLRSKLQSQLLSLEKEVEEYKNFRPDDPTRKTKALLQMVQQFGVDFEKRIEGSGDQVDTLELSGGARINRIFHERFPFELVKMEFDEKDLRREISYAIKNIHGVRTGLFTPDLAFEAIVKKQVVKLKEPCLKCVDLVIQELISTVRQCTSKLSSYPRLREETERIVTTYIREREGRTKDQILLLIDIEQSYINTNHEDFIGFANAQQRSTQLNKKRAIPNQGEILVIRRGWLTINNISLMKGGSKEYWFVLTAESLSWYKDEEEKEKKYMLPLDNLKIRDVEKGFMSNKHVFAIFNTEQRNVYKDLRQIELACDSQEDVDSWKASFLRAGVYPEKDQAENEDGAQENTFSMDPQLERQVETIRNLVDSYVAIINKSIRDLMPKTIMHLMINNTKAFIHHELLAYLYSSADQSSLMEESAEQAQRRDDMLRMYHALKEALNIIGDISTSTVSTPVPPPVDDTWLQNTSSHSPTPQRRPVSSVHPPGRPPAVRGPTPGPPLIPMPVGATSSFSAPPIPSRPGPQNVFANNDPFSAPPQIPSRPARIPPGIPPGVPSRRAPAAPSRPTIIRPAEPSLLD
Source text: Recombinant dynamin I was used only for the data in Table 2. The dynamin antibodies were from: Dynamin I—in‐house YF2 antibodies, raised in rabbits against two different synthetic peptides: dynamin I 629‐647 ([…]) and dynamin I 765–778 ([…]), used at 1/2000 dilution, as previously described 53; Dynamin II—Santa Cruz (C‐18, sc‐6400, used at 1/1000) and Dynamin III—Santa Cruz (P‐13, sc‐69472, used at 1/500 dilution).
Assay conditions were based on the dynamin I assay but contained modifications. Recombinant dynamin II was used at 50 nM, stimulated by 10 µg/mL PS. The GTPase reaction was allowed to occur for 90 min at 37°C before termination.

cultured CGNs = assay: SV turnover by FM1-43 loading/unloading in cultured cerebellar granule neurons; assay type: cell-based, rat; conditions: 30 μM, 15 min preincubation
Experimental: Granule neuron cultures were prepared from the cerebella of 7‐day‐old rat pups as previously described 57. In all experiments, neurons were used between 8 and 10 days in vitro.
Neuronal cultures were removed from culture medium and left for 10 min in incubation medium [170 mM NaCl, 3.5 mM KCl, 0.4 mM KH2PO4, 20 mM TES (N‐tris[hydroxy‐methyl]‐methyl‐2‐aminoethane‐sulfonic acid), 5 mM NaHCO3, 5 mM glucose, 1.2 mM Na2SO4, 1.2 mM MgCl2 and 1.3 mM CaCl2, pH 7.4]. Cultures were then mounted in a Warner imaging chamber (RC‐21BRFS). Invaginating membrane was loaded with FM1‐43 (10 μM) by evoking SV turnover with a brief train of action potentials (80 Hz for 10 seconds, 100 mA and 1‐millisecond pulse width, delivered using platinum wires embedded in the imaging chamber). Dye kept present for 1 min after stimulation to ensure all retrieving membrane was labeled (S1 loading). After a 10‐min rest period, accumulated dye was unloaded from nerve terminals using two consecutive maximal stimuli with incubation media supplemented with 50 mM KCl (50 mM NaCl removed to maintain osmolarity). The fluorescence decrease due to dye loss provides an estimate of the total number of synaptic vesicles turned over during stimulation (S1). After a 20‐min rest period the S1 protocol was repeated (S2 loading and unloading). […]

| Compound | IC50 ([1]; Absence of Tween, DynII 50 nM, no unit in table, read-out: IC50 DynII (rec)) [µM] | IC50 ([1]; Presence of Tween, DynII 50 nM, no unit in table, read-out: IC50 DynII (rec)) [µM] | FM1-43 unloading (SV exocytosis) (cultured CGNs) | IC50 ([1]; detergent removed from the assay, n = 2, read-out: IC50 full-length helical dynamin II) [µM] | effect on dynamin II ([1]; standard assay with Tween-80, up to 1.5 mM) |
| --- | --- | --- | --- | --- | --- |
| O=C(N/N=C/c1cc(O)c(O)cc1O)c1cc2ccccc2cc1O [4a, (E)-3-Hydroxy-N'-(2,4,5-trihydroxybenzylidene) -2-naphthohydrazide] | 2.3 ± 0.2 | 92.3 ± 10.9 | did not have a significant acute effect | – | – |
| O=C(N/N=C/c1ccc(O)c(O)c1)c1cc2ccccc2cc1O [Dynasore, (E)-N'-(3,4-Dihydroxybenzylidene)-3-hydroxy-2-naphthohydrazide] | – | – | – | 18.1 ± 0.2 | no effect |
